Laboratory results from PubChem BioAssay AID1918952 (Molecular Pharmacology Branch, DTP, NCI, 2023).

System: LG0703-F948-PDC complex spheroid viability
Experiment: Anticancer human tumor LG0703-F948-PDC patient-derived lung adenocarcinoma cell line growth inhibition
Details: for IC50: curve of first compound; for viability, T/C: stronger effect = lower value
Procedure, shortened: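 Complex spheroids of tumor cells with HUVEC and human MSCs, exposed to iadademstat combined with other agents. Each agent tested in half-log steps from near clinical Cmax (else 10 microM top), DMSO ≤0.25%.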

[1] = second compound 0.1 µM, first compound 0.00949 µM
[2] = second compound 0.1 µM, first compound 0.03 µM
[3] = second compound 0.1 µM, first compound 0.0949 µM
[4] = second compound 0.1 µM, first compound 0.3 µM
[5] = second compound 0.1 µM, first compound 0.949 µM
[6] = second compound 0.1 µM, first compound 3 µM
[7] = second compound 0.316 µM, first compound 0.00949 µM
[8] = second compound 0.316 µM, first compound 0.03 µM
[9] = second compound 0.316 µM, first compound 0.0949 µM
[10] = second compound 0.316 µM, first compound 0.3 µM
[11] = second compound 0.316 µM, first compound 0.949 µM
[12] = second compound 0.316 µM, first compound 3 µM
[13] = second compound 1 µM, first compound 0.00949 µM
[14] = second compound 1 µM, first compound 0.03 µM
[15] = second compound 1 µM, first compound 0.0949 µM
[16] = second compound 1 µM, first compound 0.3 µM
[17] = second compound 1 µM, first compound 0.949 µM
[18] = second compound 1 µM, first compound 3 µM
[19] = second compound 3.16 µM, first compound 0.00949 µM
[20] = second compound 3.16 µM, first compound 0.03 µM
[21] = second compound 3.16 µM, first compound 0.0949 µM
[22] = second compound 3.16 µM, first compound 0.3 µM
[23] = second compound 3.16 µM, first compound 0.949 µM
[24] = second compound 3.16 µM, first compound 3 µM
[25] = second compound 10 µM, first compound 0.00949 µM
[26] = second compound 10 µM, first compound 0.03 µM
[27] = second compound 10 µM, first compound 0.0949 µM
[28] = second compound 10 µM, first compound 0.3 µM
[29] = second compound 10 µM, first compound 0.949 µM
[30] = second compound 10 µM, first compound 3 µM
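Further: spheroids exposed to agents for seven days before readout.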
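Wherever viability, T/C is given: 100% = DMSO vehicle control wells as normalization base.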

SMILES: Nc1ccccc1NC(=O)c1ccc(CNC(=O)OCc2cccnc2)cc1 + NC1CCC(NC2CC2c2ccccc2)CC1
- IC50 (second compound 0.1 µM): 118 nM
- IC50 (second compound 0.316 µM): 142 nM
- IC50 (second compound 1 µM): 127 nM
- IC50 (second compound 3.16 µM): 141 nM
- IC50 (second compound 10 µM): 139 nM
- viability, T/C [1]: 110%
- viability, T/C [2]: 99.9%
- viability, T/C [3]: 58.8%
- viability, T/C [4]: 12.6%
- viability, T/C [5]: 1.17%
- viability, T/C [6]: 0.33%
- viability, T/C [7]: 105%
- viability, T/C [8]: 93.8%
- viability, T/C [9]: 70.2%
- viability, T/C [10]: 14.2%
- viability, T/C [11]: 1.51%
- viability, T/C [12]: 0.96%
- viability, T/C [13]: 87.7%
- viability, T/C [14]: 94.8%
- viability, T/C [15]: 59.4%
- viability, T/C [16]: 17%
- viability, T/C [17]: 1.08%
- viability, T/C [18]: 0.48%
- viability, T/C [19]: 112%
- viability, T/C [20]: 109%
- viability, T/C [21]: 68.9%
- viability, T/C [22]: 13.5%
- viability, T/C [23]: 0.24%
- viability, T/C [24]: 0.24%
- viability, T/C [25]: 94.7%
- viability, T/C [26]: 85.2%
- viability, T/C [27]: 67.2%
- viability, T/C [28]: 17%
- viability, T/C [29]: 0.59%
- viability, T/C [30]: 0.92%

SMILES: O=C(C=Cc1cccc(S(=O)(=O)Nc2ccccc2)c1)NO + NC1CCC(NC2CC2c2ccccc2)CC1
- IC50 (second compound 0.1 µM): 78.2 nM
- IC50 (second compound 0.316 µM): 83.5 nM
- IC50 (second compound 1 µM): 83.2 nM
- IC50 (second compound 3.16 µM): 77.8 nM
- IC50 (second compound 10 µM): 57.6 nM
- viability, T/C [1]: 103%
- viability, T/C [2]: 88%
- viability, T/C [3]: 41.8%
- viability, T/C [4]: 10.5%
- viability, T/C [5]: 1.71%
- viability, T/C [6]: 0.44%
- viability, T/C [7]: 114%
- viability, T/C [8]: 93.5%
- viability, T/C [9]: 44.5%
- viability, T/C [10]: 10.6%
- viability, T/C [11]: 1.43%
- viability, T/C [12]: 0.17%
- viability, T/C [13]: 126%
- viability, T/C [14]: 89.5%
- viability, T/C [15]: 48.5%
- viability, T/C [16]: 9.18%
- viability, T/C [17]: 1.34%
- viability, T/C [18]: 0.11%
- viability, T/C [19]: 102%
- viability, T/C [20]: 86%
- viability, T/C [21]: 42.9%
- viability, T/C [22]: 8.17%
- viability, T/C [23]: 0.32%
- viability, T/C [24]: 0.12%
- viability, T/C [25]: 114%
- viability, T/C [26]: 77.3%
- viability, T/C [27]: 29.8%
- viability, T/C [28]: 4%
- viability, T/C [29]: 0.21%
- viability, T/C [30]: 0.19%

SMILES: O=C(c1cc(Cc2n[nH]c(=O)c3ccccc23)ccc1F)N1CCN(C(=O)C2CC2)CC1 + NC1CCC(NC2CC2c2ccccc2)CC1
- IC50 (second compound 0.1 µM): > 10000 nM
- IC50 (second compound 0.316 µM): > 10000 nM
- IC50 (second compound 1 µM): > 10000 nM
- IC50 (second compound 3.16 µM): > 10000 nM
- IC50 (second compound 10 µM): > 10000 nM
- viability, T/C (second compound 0.1 µM, first compound 0.0316 µM): 101%
- viability, T/C (second compound 0.1 µM, first compound 0.1 µM): 100%
- viability, T/C (second compound 0.1 µM, first compound 0.316 µM): 91.5%
- viability, T/C (second compound 0.1 µM, first compound 1 µM): 99.4%
- viability, T/C (second compound 0.1 µM, first compound 3.16 µM): 80.9%
- viability, T/C (second compound 0.1 µM, first compound 10 µM): 76.8%
- viability, T/C (second compound 0.316 µM, first compound 0.0316 µM): 112%
- viability, T/C (second compound 0.316 µM, first compound 0.1 µM): 117%
- viability, T/C (second compound 0.316 µM, first compound 0.316 µM): 106%
- viability, T/C (second compound 0.316 µM, first compound 1 µM): 89.4%
- viability, T/C (second compound 0.316 µM, first compound 3.16 µM): 94.3%
- viability, T/C (second compound 0.316 µM, first compound 10 µM): 84%
- viability, T/C (second compound 1 µM, first compound 0.0316 µM): 121%
- viability, T/C (second compound 1 µM, first compound 0.1 µM): 125%
- viability, T/C (second compound 1 µM, first compound 0.316 µM): 123%
- viability, T/C (second compound 1 µM, first compound 1 µM): 130%
- viability, T/C (second compound 1 µM, first compound 3.16 µM): 95.3%
- viability, T/C (second compound 1 µM, first compound 10 µM): 98.2%
- viability, T/C (second compound 3.16 µM, first compound 0.0316 µM): 116%
- viability, T/C (second compound 3.16 µM, first compound 0.1 µM): 110%
- viability, T/C (second compound 3.16 µM, first compound 0.316 µM): 113%
- viability, T/C (second compound 3.16 µM, first compound 1 µM): 107%
- viability, T/C (second compound 3.16 µM, first compound 3.16 µM): 112%
- viability, T/C (second compound 3.16 µM, first compound 10 µM): 106%
- viability, T/C (second compound 10 µM, first compound 0.0316 µM): 109%
- viability, T/C (second compound 10 µM, first compound 0.1 µM): 106%
- viability, T/C (second compound 10 µM, first compound 0.316 µM): 103%
- viability, T/C (second compound 10 µM, first compound 1 µM): 109%
- viability, T/C (second compound 10 µM, first compound 3.16 µM): 94%
- viability, T/C (second compound 10 µM, first compound 10 µM): 84%
